In patent US10676429B2, “Sulfamoyl-arylamides and the use thereof as medicaments for the treatment of hepatitis B” (priority 2012, dated 2020):

How the values were obtained:
HBV [1] = assay: Anti-HBV activity in HepG2.117 cell line (Tet-off, intracellular HBV DNA, realtime PCR); type: cell-based; conditions: Hepatitis B virus, HepG2.117, 72 h, HepG2.117 cells, 3 days of treatment, intracellular HBV DNA; read-out: HepG2 117 EC50
HBV [2] = assay: Anti-HBV activity in stable transfected HepG2.2.15 cell line (HBV DNA from secreted virions, realtime PCR); type: cell-based; conditions: Hepatitis B virus, HepG2.2.15, 144 h, HepG2.2.15 cells, 6 days of treatment, secreted virion HBV DNA; read-out: HepG2 2.15 EC50
[3] = Cytotoxicity in HepG2 cells using CellTiter-Blue (6 days); conditions: human
HepG2 cells [4] = assay: Cytotoxicity in HepG2 cells, 4 days, Resazurin assay; conditions: read-out: HepG2 4 days CC50; HepG2 cells, 4 days, Resazurin
HepG2 cells [5] = assay: Cytotoxicity in HepG2 cells using CellTiter-Blue (6 days); conditions: read-out: HepG2 6 days CC50, 6 days, CellTiter-Blue
[6] = Cytotoxicity in HepG2 cells, 4 days, Resazurin assay; conditions: human

Row | SMILES | EC50 (HBV [1]) [µM] | EC50 (HBV [2]) [µM] | CC50 at 6 days [3] [µM] | CC50 (HepG2 cells [4]) [µM] | CC50 (HepG2 cells [5]) [µM] | CC50 at 4 days [6] [µM] | CC50 at 4 days ([6]; HepG2 cells) [µM]
1 | O=C(Nc1ccc(F)cc1)c1cc(S(=O)(=O)NC2CCCCC2)ccc1F [Compound 18] | 1.3 | 0.78 | 51.6 | > 50 |  |  | 
2 | O=C(Nc1ccccc1)c1cc(S(=O)(=O)NC2CCCCC2)ccc1F [Compound 19] | 0.6 | 0.66 | 42.5 | > 25 |  |  | 
3 | O=C(Nc1ccccc1)c1cc(S(=O)(=O)N2CCCCC2)c(Cl)cc1Cl [Compound 20] | 1 | 0.5 |  |  | > 25 | 79.6 | 
4 | O=C(Nc1ccccc1)c1cccc(S(=O)(=O)NC2CCCC2)c1 [Compound 21] | 0.76 | 0.6 |  |  | 27.2 |  | 41.1
5 | O=C(Nc1ccc(F)cc1)c1ccc(Cl)c(S(=O)(=O)N2CCCCCC2)c1 [Compound 23] | 1.3 | 0.66 |  |  | 17 |  | 19.6
6 | CCN(CC)S(=O)(=O)c1ccc(Cl)c(C(=O)Nc2ccccc2)c1 [Compound 26] |  | 1.04 |  |  | > 25 |  | 
7 | O=C(Nc1ccccc1)c1ccc(F)c(S(=O)(=O)NC2CCCCC2)c1 [Compound 31] |  | 2.23 |  |  | 16.4 |  | 
8 | COc1ccc(NC(=O)c2ccc(Cl)c(S(=O)(=O)N3CCCCCC3)c2)cc1 [Compound 32] | 4.58 | 2.59 | 9.9 |  |  |  | > 25
9 | O=C(Nc1ccc(Cl)cc1)c1cc(S(=O)(=O)NC2CCCCC2)ccc1F [Compound 38] | 15.5 | < 6.25 | 18.4 |  |  |  | 22.1
10 | O=C(Nc1cccc(Cl)c1)c1cc(S(=O)(=O)NC2CCCCC2)ccc1F [Compound 43] | > 25 | 15.1 | 36.3 |  |  |  | > 25
